# Reference: ChEMBL document CHEMBL4627399, “Synthesis and Structure-Activity Relationships of 5'-Aryl-14-alkoxypyridomorphinans: Identification of a μ Opioid Receptor Agonist/δ Opioid Receptor Antagonist Ligand with Systemic Antinociceptive Activity and Diminished Opioid Side Effects” (J Med Chem, 2020)
# Active and inactive are the calls of the source. The rule behind the calls is not given here.
# Experiments:
# Mu-type opioid receptor [1] = target: T1, Mu-type opioid receptor (Homo sapiens, UniProt P35372); test: biochemical; format: cell-based, CHO
# [2] = target: T2, Delta-type opioid receptor (Homo sapiens, UniProt P41143); test: Displacement of [3H]-diprenorphine from human delta opioid receptor expressed in CHO cell membranes incubated for 1 hr by competition radioligand binding assay
# [3] = target: T3, Kappa-type opioid receptor (Homo sapiens, UniProt P41145); test: Displacement of [3H]-diprenorphine from human kappa opioid receptor expressed in CHO cell membranes incubated for 1 hr by competition radioligand binding assay
# [4] = target: T2, Delta-type opioid receptor; test: Antagonist activity at human delta opioid receptor expressed in CHO cell membranes assessed as reduction in SNC80-induced [35S]GTPgammaS binding preincubated for 5 mins followed by SNC80 addition and measured after 1 hr; format: functional
# [5] = Stability in human liver microsomes at 1 uM measured up to 60 mins by LC-MS/MS analysis; format: ADME, Microsome; conditions: 1 h
# Mu-type opioid receptor [6] = target: T1, Mu-type opioid receptor; test: biochemical
# [7] = target: T3, Kappa-type opioid receptor; test: Agonist activity at human kappa opioid receptor expressed in CHO cell membranes incubated for 1 hr by [35S]GTPgammaS binding assay; format: functional
# [8] = target: T3, Kappa-type opioid receptor; test: Agonist activity at human kappa opioid receptor expressed in CHO cell membranes assessed as stimulation of [35S]GTPgammaS binding incubated for 1 hr relative to […]; format: functional
smiles,measurement,setting,value
Cc1ccccc1-c1cnc2c(c1)C[C@@]1(OCCCc3ccccc3)[C@H]3Cc4ccc(O)c5c4[C@@]1(CCN3CC1CC1)[C@H]2O5,Ki,Mu-type opioid receptor [1],0.235 µM
same,Ki,[2],0.0972 µM
same,Ki,[3],0.152 µM
same,IC50,[4],0.0143 µM
same,Stability,[5],Stable
same,EC50,Mu-type opioid receptor [6],0.00553 µM
Oc1ccc2c3c1O[C@H]1c4ncc(-c5ccccn5)cc4C[C@@]4(OCCCc5ccccc5)[C@@H](C2)N(CC2CC2)CC[C@]314,Ki,Mu-type opioid receptor [1],0.105 µM
same,Ki,[2],0.00652 µM
same,Ki,[3],0.0192 µM
same,IC50,[4],0.00051 µM
same,Stability,[5],Stable
same,EC50,Mu-type opioid receptor [6],0.526 µM
Oc1ccc2c3c1O[C@H]1c4ncc(-c5ccc(Br)cc5)cc4C[C@@]4(OCCCc5ccccc5)[C@@H](C2)N(CC2CC2)CC[C@]314,Ki,[2],0.0209 µM
same,Ki,[3],0.0759 µM
same,IC50,[4],< 0.00051 µM
same,EC50,[7]; read-out: EC50,0.00552 µM
same,Stability,[5],Stable
Oc1ccc2c3c1O[C@H]1c4ncc(-c5ccccc5)cc4C[C@@]4(OCCCC5CCOCC5)[C@@H](C2)N(CC2CC2)CC[C@]314,Ki,[2],0.0645 µM
same,Ki,[3],0.0248 µM
same,IC50,[4],< 0.00017 µM
same,Stability,[5],Stable
Oc1ccc2c3c1O[C@H]1c4ncc(-c5ccc(F)cc5)cc4C[C@@]4(OCCCc5ccccc5)[C@@H](C2)N(CC2CC2)CC[C@]314,Ki,Mu-type opioid receptor [1],0.00233 µM
same,Ki,[2],0.00342 µM
same,Ki,[3],0.00669 µM
same,IC50,[4],0.0345 µM
same,EC50,[7]; read-out: EC50,0.0566 µM
same,Stability,[5],Stable
same,EC50,Mu-type opioid receptor [6],0.117 µM
Cc1cc(F)ccc1-c1cnc2c(c1)C[C@@]1(OCCCc3ccccc3)[C@H]3Cc4ccc(O)c5c4[C@@]1(CCN3CC1CC1)[C@H]2O5,Ki,[2],0.00378 µM
same,Ki,[3],0.129 µM
same,IC50,[4],0.0282 µM
same,EC50,[7]; cho,Not Active
same,Emax,[8],inactive
same,Stability,[5],Stable
Oc1ccc2c3c1O[C@H]1c4ncc(-c5ccccc5)cc4C[C@@]4(OCCCCc5ccccc5)[C@@H](C2)N(CC2CC2)CC[C@]314,Ki,Mu-type opioid receptor [1],0.0921 µM
same,Ki,[2],0.0146 µM
same,Ki,[3],0.0571 µM
same,IC50,[4],0.0666 µM
same,Stability,[5],Stable
same,EC50,Mu-type opioid receptor [6],0.0248 µM
CC(=O)Nc1cccc(-c2cnc3c(c2)C[C@@]2(OCCCc4ccccc4)[C@H]4Cc5ccc(O)c6c5[C@@]2(CCN4CC2CC2)[C@H]3O6)c1,Ki,Mu-type opioid receptor [1],0.337 µM
same,Ki,[2],> 3.33 µM
same,Ki,[3],0.608 µM
same,Stability,[5],Stable
Oc1ccc2c3c1O[C@H]1c4ncc(-c5ccccc5C5CC5)cc4C[C@@]4(OCCCc5ccccc5)[C@@H](C2)N(CC2CC2)CC[C@]314,Ki,Mu-type opioid receptor [1],0.135 µM
same,Ki,[2],0.0641 µM
same,Ki,[3],0.175 µM
same,IC50,[4],0.00248 µM
same,Stability,[5],Stable
same,EC50,Mu-type opioid receptor [6],0.141 µM
Cc1cccc(-c2cnc3c(c2)C[C@@]2(OCCCc4ccccc4)[C@H]4Cc5ccc(O)c6c5[C@@]2(CCN4CC2CC2)[C@H]3O6)c1,Ki,Mu-type opioid receptor [1],0.0244 µM
same,Ki,[2],0.0268 µM
same,Ki,[3],0.0176 µM
same,IC50,[4],< 0.000169 µM
same,EC50,[7]; cho,Not Active
same,Emax,[8],inactive
same,Stability,[5],Stable
same,EC50,Mu-type opioid receptor [6],0.0206 µM
Oc1cccc(-c2cnc3c(c2)C[C@@]2(OCCCc4ccccc4)[C@H]4Cc5ccc(O)c6c5[C@@]2(CCN4CC2CC2)[C@H]3O6)c1,Ki,Mu-type opioid receptor [1],0.0129 µM
same,Ki,[2],0.00837 µM
same,Ki,[3],0.0181 µM
same,IC50,[4],0.00128 µM
same,Stability,[5],Stable
same,EC50,Mu-type opioid receptor [6],0.00112 µM
COc1ccc(-c2cnc3c(c2)C[C@@]2(OCCCc4ccccc4)[C@H]4Cc5ccc(O)c6c5[C@@]2(CCN4CC2CC2)[C@H]3O6)cc1,Ki,[2],0.0306 µM
same,Ki,[3],0.14 µM
same,IC50,[4],0.022 µM
same,EC50,[7]; read-out: EC50,0.00202 µM
same,Stability,[5],Stable
CC(=O)Nc1ccc(-c2cnc3c(c2)C[C@@]2(OCCCc4ccccc4)[C@H]4Cc5ccc(O)c6c5[C@@]2(CCN4CC2CC2)[C@H]3O6)cc1,Ki,Mu-type opioid receptor [1],0.159 µM
same,Ki,[2],0.394 µM
same,Ki,[3],0.0151 µM
same,Stability,[5],Stable
Cc1ccc(-c2cnc3c(c2)C[C@@]2(OCCCc4ccccc4)[C@H]4Cc5ccc(O)c6c5[C@@]2(CCN4CC2CC2)[C@H]3O6)cc1,Ki,Mu-type opioid receptor [1],0.191 µM
same,Ki,[2],0.0344 µM
same,Ki,[3],0.102 µM
same,IC50,[4],0.00363 µM
same,Stability,[5],Stable
same,EC50,Mu-type opioid receptor [6],0.00231 µM
Cc1nocc1-c1cnc2c(c1)C[C@@]1(OCCCc3ccccc3)[C@H]3Cc4ccc(O)c5c4[C@@]1(CCN3CC1CC1)[C@H]2O5,Ki,Mu-type opioid receptor [1],0.0993 µM
same,Ki,[2],0.0645 µM
same,Ki,[3],0.0231 µM
same,IC50,[4],0.00068 µM
same,Stability,[5],Stable
same,EC50,Mu-type opioid receptor [6],0.00346 µM
CN(C)c1cccc(-c2cnc3c(c2)C[C@@]2(OCCCc4ccccc4)[C@H]4Cc5ccc(O)c6c5[C@@]2(CCN4CC2CC2)[C@H]3O6)c1,Ki,Mu-type opioid receptor [1],0.0158 µM
same,Ki,[2],0.0689 µM
same,Ki,[3],0.0119 µM
same,IC50,[4],0.00376 µM
same,EC50,[7]; cho,Not Active
same,Emax,[8],inactive
same,Stability,[5],Stable
same,EC50,Mu-type opioid receptor [6],0.0015 µM
CN(C)c1ccc(-c2cnc3c(c2)C[C@@]2(OCCCc4ccccc4)[C@H]4Cc5ccc(O)c6c5[C@@]2(CCN4CC2CC2)[C@H]3O6)cc1,Ki,Mu-type opioid receptor [1],0.0047 µM
same,Ki,[2],0.0531 µM
same,Ki,[3],0.00618 µM
same,IC50,[4],0.00253 µM
same,EC50,[7]; cho,Not Active
same,Emax,[8],inactive
same,Stability,[5],Stable
same,EC50,Mu-type opioid receptor [6],0.0021 µM
Oc1ccc2c3c1O[C@H]1c4ncc(-c5cccnc5)cc4C[C@@]4(OCCCc5ccccc5)[C@@H](C2)N(CC2CC2)CC[C@]314,Ki,Mu-type opioid receptor [1],0.0827 µM
same,Ki,[2],0.0306 µM
same,Ki,[3],0.0278 µM
same,IC50,[4],0.00067 µM
same,EC50,[7]; cho,Not Active
same,Emax,[8],inactive
same,Stability,[5],Stable
same,EC50,Mu-type opioid receptor [6],> 3.33 µM
Oc1ccc2c3c1O[C@H]1c4ncc(-c5ccccc5)cc4C[C@@]4(OCCCc5ccccc5)[C@@H](C2)N(CC2CC2)CC[C@]314,Ki,Mu-type opioid receptor [1],0.0231 µM
same,Ki,[2],0.0193 µM
same,Ki,[3],0.132 µM
same,IC50,[4],0.00093 µM
same,EC50,[7]; read-out: EC50,> 3.33 µM
same,Stability,[5],Stable
same,EC50,Mu-type opioid receptor [6],0.00127 µM
Oc1ccc2c3c1O[C@H]1c4ncc(-c5cnccn5)cc4C[C@@]4(OCCCc5ccccc5)[C@@H](C2)N(CC2CC2)CC[C@]314,Ki,Mu-type opioid receptor [1],0.0887 µM
same,Ki,[2],0.0401 µM
same,Ki,[3],0.0198 µM
same,IC50,[4],0.00127 µM
same,EC50,[7]; cho,Not Active
same,Emax,[8],inactive
same,Stability,[5],Stable
same,EC50,Mu-type opioid receptor [6],> 3.33 µM
Cc1cc(-c2cnc3c(c2)C[C@@]2(OCCCc4ccccc4)[C@H]4Cc5ccc(O)c6c5[C@@]2(CCN4CC2CC2)[C@H]3O6)ccn1,Ki,Mu-type opioid receptor [1],0.00105 µM
same,Ki,[2],0.0635 µM
same,Ki,[3],< 0.00051 µM
same,IC50,[4],0.00039 µM
same,EC50,[7]; cho,Not Active
same,Emax,[8],inactive
same,Stability,[5],Stable
same,EC50,Mu-type opioid receptor [6],0.00188 µM
Oc1ccc2c3c1O[C@H]1c4ncc(-n5cccc5)cc4C[C@@]4(OCCCc5ccccc5)[C@@H](C2)N(CC2CC2)CC[C@]314,Ki,Mu-type opioid receptor [1],0.0147 µM
same,Ki,[2],< 0.000169 µM
same,Ki,[3],0.0138 µM
same,IC50,[4],0.00098 µM
same,EC50,[7]; cho,Not Active
same,Emax,[8],inactive
same,Stability,[5],Stable
same,EC50,Mu-type opioid receptor [6],0.00161 µM
Oc1ccc2c3c1O[C@H]1c4ncc(-c5ccc(F)c(F)c5)cc4C[C@@]4(OCCCc5ccccc5)[C@@H](C2)N(CC2CC2)CC[C@]314,Ki,Mu-type opioid receptor [1],0.37 µM
same,Ki,[2],0.00752 µM
same,Ki,[3],0.0712 µM
same,Stability,[5],Stable
CN(C)c1ccccc1-c1cnc2c(c1)C[C@@]1(OCCCc3ccccc3)[C@H]3Cc4ccc(O)c5c4[C@@]1(CCN3CC1CC1)[C@H]2O5,Ki,Mu-type opioid receptor [1],0.00697 µM
same,Ki,[2],0.0696 µM
same,Ki,[3],0.00796 µM
same,IC50,[4],0.0123 µM
same,EC50,[7]; cho,Not Active
same,Emax,[8],inactive
same,Stability,[5],Stable
same,EC50,Mu-type opioid receptor [6],0.233 µM
Oc1ccc2c3c1O[C@H]1c4ncc(-c5ccncn5)cc4C[C@@]4(OCCCc5ccccc5)[C@@H](C2)N(CC2CC2)CC[C@]314,Ki,Mu-type opioid receptor [1],0.0662 µM
same,Ki,[2],0.0221 µM
same,Ki,[3],0.0308 µM
same,IC50,[4],0.00071 µM
same,EC50,[7]; cho,Not Active
same,Emax,[8],inactive
same,Stability,[5],Stable
same,EC50,Mu-type opioid receptor [6],> 3.33 µM
CN(C)Cc1ccccc1-c1cnc2c(c1)C[C@@]1(OCCCc3ccccc3)[C@H]3Cc4ccc(O)c5c4[C@@]1(CCN3CC1CC1)[C@H]2O5,Ki,Mu-type opioid receptor [1],0.0564 µM
same,Ki,[2],0.014 µM
same,Ki,[3],0.0227 µM
same,IC50,[4],0.0117 µM
same,EC50,[7]; cho,Not Active
same,Emax,[8],inactive
same,Stability,[5],Stable
same,EC50,Mu-type opioid receptor [6],0.0289 µM
Oc1ccc2c3c1O[C@H]1c4ncc(-c5ccccc5)cc4C[C@@]4(OCCCc5ccc(F)cc5)[C@@H](C2)N(CC2CC2)CC[C@]314,Ki,[2],0.011 µM
same,Ki,[3],0.0602 µM
same,IC50,[4],0.0638 µM
same,EC50,[7]; cho,Not Active
same,Emax,[8],inactive
same,Stability,[5],Stable
Cc1cccc(C)c1-c1cnc2c(c1)C[C@@]1(OCCCc3ccccc3)[C@H]3Cc4ccc(O)c5c4[C@@]1(CCN3CC1CC1)[C@H]2O5,Ki,Mu-type opioid receptor [1],0.249 µM
same,Ki,[2],0.0934 µM
same,Ki,[3],0.134 µM
same,IC50,[4],0.0516 µM
same,Stability,[5],Stable
same,EC50,Mu-type opioid receptor [6],0.0034 µM
Oc1ccc2c3c1O[C@H]1c4ncc(-c5ccc(F)cc5F)cc4C[C@@]4(OCCCc5ccccc5)[C@@H](C2)N(CC2CC2)CC[C@]314,Ki,Mu-type opioid receptor [1],0.171 µM
same,Ki,[2],0.0537 µM
same,Ki,[3],0.0359 µM
same,IC50,[4],0.0032 µM
same,Stability,[5],Stable
same,EC50,Mu-type opioid receptor [6],0.13 µM
Oc1ccc2c3c1O[C@H]1c4ncc(-c5ccccc5)cc4C[C@@]4(OCCCC5CCCCC5)[C@@H](C2)N(CC2CC2)CC[C@]314,Ki,Mu-type opioid receptor [1],0.0953 µM
same,Ki,[2],0.0129 µM
same,Ki,[3],0.0579 µM
same,IC50,[4],0.0287 µM
same,EC50,[7]; read-out: EC50,0.0345 µM
same,Stability,[5],Stable
same,EC50,Mu-type opioid receptor [6],0.0236 µM
Oc1ccc2c3c1O[C@H]1c4ncc(-c5ccc(Cl)cc5)cc4C[C@@]4(OCCCc5ccccc5)[C@@H](C2)N(CC2CC2)CC[C@]314,Stability,[5],Stable
